Results reported in US20080090836A1, “Pyrazole Compounds Useful In The Treatment Of Inflammation” (priority 2004, published 2008).

What follows are compounds tested against T1, purified human 15-lipoxygenase (Homo sapiens, UniProt P16050) (assay: 15-lipoxygenase inhibition assay (oxidation of arachidonic acid, product measured by reverse phase HPLC)). Conditions: arachidonic acid substrate, room temperature, PBS pH 7.4.
T1 sequence (P16050 1-662): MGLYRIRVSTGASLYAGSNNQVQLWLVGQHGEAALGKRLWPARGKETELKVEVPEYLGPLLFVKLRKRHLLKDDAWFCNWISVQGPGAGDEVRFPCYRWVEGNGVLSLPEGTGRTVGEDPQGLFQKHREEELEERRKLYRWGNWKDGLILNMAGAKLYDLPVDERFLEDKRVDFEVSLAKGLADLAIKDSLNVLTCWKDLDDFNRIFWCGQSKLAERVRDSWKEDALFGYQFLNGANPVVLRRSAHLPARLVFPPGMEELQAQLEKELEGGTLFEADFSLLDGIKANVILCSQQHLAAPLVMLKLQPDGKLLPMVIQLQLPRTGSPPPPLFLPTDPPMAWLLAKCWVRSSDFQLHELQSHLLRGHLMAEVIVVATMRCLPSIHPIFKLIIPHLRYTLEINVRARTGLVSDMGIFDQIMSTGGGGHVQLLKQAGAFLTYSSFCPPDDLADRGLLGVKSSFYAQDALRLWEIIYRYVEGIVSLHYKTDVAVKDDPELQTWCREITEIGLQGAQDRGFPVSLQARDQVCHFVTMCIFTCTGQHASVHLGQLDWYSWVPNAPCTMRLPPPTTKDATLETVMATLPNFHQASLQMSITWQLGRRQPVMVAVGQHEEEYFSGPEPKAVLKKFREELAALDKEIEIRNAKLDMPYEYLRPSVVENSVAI
Assay type: biochemical
Experimental: The assay employed takes advantage of the ability of lipoxygenases to oxidize polyunsaturated fatty acids, containing a 1,4-cis-pentadiene configuration, to their corresponding hydroperoxy or hydroxyl derivatives. In this particular assay, the lipoxygenase was a purified human 15-lipoxygenase and the fatty acid was arachidonic acid. The assay is performed at room temperature (20-22° C.) and the following are added to each well in a 96-well microliter plate:
a) 35 μL phosphate buffered saline (PBS) (pH 7.4);
b) inhibitor (i.e. compound) or vehicle (0.5 μl DMSO);
c) 10 μL of a 10× concentrated solution of 15-lipoxygenase in PBS. The plates are incubated for 5 minutes at room temperature;
The plate is then incubated for 10 minutes at room temperature;
e) the enzymatic reaction is terminated by the addition of 100 μl methanol; and
f) the amount of 15-hydroperoxy-eicosatetraenoic acid or 15-hydroxyeicosatetraenoic acid is measured by reverse phase HPLC.

| SMILES | IC50 [µM] |
| --- | --- |
| CCOC(=O)CNC(=O)n1nc(C(=O)Nc2ccc(F)cc2Cl)cc1C [Example 31, {[3-(2-Chloro-4-fluorophenylcarbamoyl)-5-Methylpyrazole-1-carbonyl]-amino}-acetic acid ethyl ester] | 0.63 |
| Cc1cc(C(=O)Nc2ccc(F)cc2Cl)nn1C(=O)NC1CCN(C(=O)OCc2ccccc2)CC1 [Example 32, 4-{[3-(2-Chloro-4-fluorophenylcarbamoyl)-5-methylpyrazole-1-carbonyl]amino}-piperidine-1-carboxylic acid benzyl ester] | 0.66 |
| Cc1cn(C(=O)NCCc2cccs2)nc1C(=O)Nc1ccc(F)cc1Cl [Example 4, 4-Methylpyrazole-1,3-dicarboxylic acid 3-[(2-chloro-4-fluorophenyl)-amide] 1-[(2-thien-2-ylethyl)amide]] | 3.71 |
| C=CCNC(=O)n1nc(C(=O)Nc2ccc(F)cc2Cl)cc1C [Example 33, 5-Methylpyrazole-1,3-dicarboxylic acid 1-allylamide 3-[(2-chloro-4-fluorophenyl)amide]] | 5.6 |
| CCOC(=O)CNC(=O)n1cc(C)c(C(=O)Nc2ccc(F)cc2Cl)n1 [Example 17, {[3-(2-Chloro-4-fluorophenylcarbamoyl)-4-methylpyrazole-1-carbonyl]-amino}acetic acid ethyl ester] | 8.51 |
| CCCCOc1ccc(S(=O)(=O)n2nc(C(=O)Nc3ccc(F)cc3Cl)cc2C)cc1 [Example 50, 1-(4-Butoxy-benzenesulfonyl)-5-methylpyrazole-3-carboxylic acid (2-chloro-4-fluorophenyl)amide] | 8.33 |
| COc1ccc(S(=O)(=O)n2nc(C(=O)Nc3ccc(F)cc3Cl)cc2C)cc1 [Example 51, 1-(4-Methoxy-benzenesulfonyl)-5-methylpyrazole-3-carboxylic acid (2-chloro-4-fluorophenyl)amide] | 5.87 |
| Cc1cc(C(=O)Nc2ccc(F)cc2Cl)nn1C(=O)NCCc1cccs1 [Example 30, 5-Methylpyrazole-1,3-dicarboxylic acid 3-[(2-chloro-4-fluorophenyl)-amide] 1-[(2-thien-2-ylethyl)-amide]] | 0.71 |
